Assay results: patent US20150023972A1, “COMBINATION PHARMACEUTICAL COMPOSITION AND METHODS OF TREATING AND PREVENTING THE INFECTIOUS DISEASES” (priority 2010, published 2015)
Like-named read-outs stand apart in the source and are kept apart here. Marks after values point to notes of the source that are not given here.

What was measured:
[1] = system: influenza virus A/California/07/2009swl (H1N1); type: in vivo, mice; conditions: 10th day after infection; for Survival, % 10LD50: female Balb/c mice, intragastric
influenza = experiment: open-label comparative controlled clinical study versus Tamiflu in influenza; type: in vivo, human
[2] = system: influenza virus A/California/07/2009swl (H1N1); type: in vivo, mice; conditions: 10th day after infection; for Survival, % 10LD50: female Balb/c mice, intragastric; remark: listed apart in the source
[3] = Morning Day 1, 37.0° C. and lower

## CCOC(=O)C1=C[C@@H](OC(CC)CC)[C@H](NC(C)=O)[C@@H](N)C1 [Oseltamivir]
[1]; stage 1
  Difference between % of survival in the group that received medication and % of survival in the group that received distilled water: +60%
  Survival, % 10LD50: 80* %
[1]; stage 2
  Difference between % of survival in the group that received medication and % of survival in the group that received distilled water: +65%
  Survival, % 10LD50: 70* %
influenza; Evening Day 2
  Mean values of body temperature, M ± SD: 36.9 ± 0.53 °C
  Proportion of patients with normal temperature, %: 45.5%
  The number of patients with normal temperature: 5
influenza; Evening, Day 1
  Mean values of body temperature, M ± SD: 37.3 ± 0.71 °C
  Proportion of patients with normal temperature, %: 9.1%
  The number of patients with normal temperature: 1
influenza; Evening, Day 3
  Mean values of body temperature, M ± SD: 36.7 ± 0.46 °C
  Proportion of patients with normal temperature, %: 54.5%
  The number of patients with normal temperature: 6
influenza; Evening, Day 4
  Mean values of body temperature, M ± SD: 36.5 ± 0.38 °C
  Proportion of patients with normal temperature, %: 80.0%
  The number of patients with normal temperature: 8
influenza; Evening, Day 5
  Mean values of body temperature, M ± SD: 36.5 ± 0.21 °C
  Proportion of patients with normal temperature, %: 90.0%
  The number of patients with normal temperature: 9
influenza; Evening, Day 6
  Mean values of body temperature, M ± SD: 36.3 ± 0.19 °C
  Proportion of patients with normal temperature, %: 100.0%
  The number of patients with normal temperature: 7
influenza; Evening, Day 7
  Mean values of body temperature, M ± SD: 36.6 ± 0.12 °C
  Proportion of patients with normal temperature, %: 100.0%
  The number of patients with normal temperature: 4
influenza; Morning Day 1
  Mean values of body temperature, M ± SD: 38.1 ± 0.82 °C
influenza; [3]
  Proportion of patients with normal temperature, %: 0%
  The number of patients with normal temperature: 0
influenza; Morning Day 2
  Mean values of body temperature, M ± SD: 37.3 ± 0.72 °C
  Proportion of patients with normal temperature, %: 36.4%
  The number of patients with normal temperature: 4
influenza; Morning Day 3
  Mean values of body temperature, M ± SD: 36.9 ± 0.47 °C
  Proportion of patients with normal temperature, %: 45.5%
  The number of patients with normal temperature: 5
influenza; Morning Day 4
  Mean values of body temperature, M ± SD: 36.8 ± 0.37 °C
  Proportion of patients with normal temperature, %: 90.9%
  The number of patients with normal temperature: 10
influenza; Morning Day 5
  Mean values of body temperature, M ± SD: 36.7 ± 0.25 °C
  Proportion of patients with normal temperature, %: 90.0%
  The number of patients with normal temperature: 9
influenza; Morning Day 6
  Mean values of body temperature, M ± SD: 36.6 ± 0.21 °C
  Proportion of patients with normal temperature, %: 100.0%
  The number of patients with normal temperature: 9
influenza; Morning Day 7
  Mean values of body temperature, M ± SD: 36.5 ± 0.10 °C
  Proportion of patients with normal temperature, %: 100.0%
  The number of patients with normal temperature: 5
influenza; Morning Day 8
  Mean values of body temperature, M ± SD: 36.5 ± 0.14 °C
  Proportion of patients with normal temperature, %: 100.0%
  The number of patients with normal temperature: 3
influenza; by the morning of Day 4 of the therapy
  mean number of antipyretic intakes: 7.4±0.90
influenza; influenza
  Bacterial complications, Otitis, %: 0/0%
  Bacterial complications, Pneumonia, %: 9.1%
  Bacterial complications, Total, %: 27.2%
  Bacterial complications, Tracheitis, %: 18.2%
[2]; stage 1
  Difference between % of survival in the group that received medication and % of survival in the group that received distilled water: +60%
  Survival, % 10LD50: 80* %
[2]; stage 2
  Difference between % of survival in the group that received medication and % of survival in the group that received distilled water: +65%
  Survival, % 10LD50: 70* %
